Patent US6506339B1, “Method of sterilization” (Biomedical Design, Inc., priority 1997, dated 2003)

What was measured:
Assay type in all cases: cell-based
[1] = tested on: Bacillus subtilis (niger) spores; test: Sterilization without isopropyl alcohol at 55° C. (Example 4D)
Method: An experiment similar to that of Example 4A was carried out using a higher temperature of 55°. Bacillus subtilis (niger) spores at levels of 1.32×10^6 (Log10=6.12) were inoculated for approximately 10 minutes in sterile cups. Solutions (50 ml) of 5 and 50 mM EDC in 10 mM TRIS, 0.85% NaCl, pH 6.5 were prewarmed to 55° C. and then rapidly added to the cups. The cups were incubated at 55° C. for 1 and 10 hours; the solutions were then diluted and filtered in order to collect microorganisms. The filters were rinsed with a 0.1% peptone water solution and incubated on TSA plates for up to 14 days. The plates are examined daily for growth. […] This can be extrapolated to achieving complete kill in 2-3 hours. […] Although this cannot be extrapolated to complete kill over a greater length of time because of the low level of EDC remaining after 10 hours, it is expected that sterilization treatment using a concentration at least about 15 mM EDC at 55° C. for 10 hours would result in complete kill.

[2] = tested on: Trichosporon aquatile ATCC 22310 vegetative cells; test: Sterilization in cups at about 38° C. (Example 6); conditions: 25 mM EDC, 20% isopropanol, inoculum Log 10 4.3
Method: (§1) In view of the foregoing verification, it was decided to test the effectiveness of the sterilization process against other bacteria using sterile cups. Added to each of the cups is 20 ml of 10 mM HEPES, 0.85%, Nacl, 20% isopropanol, pH 6.5, containing 25 mM EDC without any coupling enhancer, before the cups are placed in a incubator at about 38° C. When the solution temperature reached about 38° C., approximately 10^5-10^6 organisms were inoculated into the solution. The tests were carried out in triplicate. The following four isolated were tested in the form of sporous suspensions: Clostridium sporogenes ATCC 3584, Bacillus pumilus ATCC 27142, Chaetonium globosom ATCC 6205, and Microacus cinereus ATCC 16594. The following three isolates were tested as vegetative cells: Mycobacterium chelonae ATCC 35752, Methylbacterium extorquens ATCC 43645 and Trichosporon aquatile ATCC 22310. The inoculated systems were allowed to incubate for 1 hour, for 5 hours or for 24 hours, and the solutions were then filtered through a 0.45 micron filter. After rinsing, the filter was placed on a TSA plate as described in Example 1. Negative and positive controls indicate that the tests were valid. The results are set forth in Table D which follows wherein the number of CFUs in the inoculum is expressed as its log to the base 10, e.g. 3.4×10^5=5.5: […]

[3] = tested on: Clostridium sporogenes ATCC 3584 spores; test: Sterilization in cups at about 38° C. (Example 6); conditions: 25 mM EDC, 20% isopropanol
Method: as §1

[4] = tested on: Bacillus pumilus ATCC 27142 spores; test: Sterilization in cups at about 38° C. (Example 6); conditions: 25 mM EDC, 20% isopropanol
Method: as §1

[5] = tested on: Mycobacterium chelonae ATCC 35752 vegetative cells; test: Sterilization in cups at about 38° C. (Example 6); conditions: 25 mM EDC, 20% isopropanol, 1 Hour, inoculum Log 10 5.15
Method: as §1

Compound: CCN=C=NCCCN(C)C.Cl [EDC, 1-ethyl-3(3-dimethylaminopropyl)carbodiimide hydrochloride]
- log reduction ([1]; 5 mM EDC, 1 hour, 1.32×10^6 spores, no isopropyl alcohol): 0.512
- log reduction ([1]; 5 mM EDC, 10 hours, 1.32×10^6 spores, no isopropyl alcohol): 4.46
- inactivation of spores ([1]; 50 mM EDC, 10 hours, 1.32×10^6 spores, no isopropyl alcohol): effectively inactivated these spores
- time to complete kill (extrapolated) ([1]; 50 mM EDC, extrapolated from the one-hour log reduction): 2 to 3 h
- log reduction ([1]; 50 mM EDC, one hour, 1.32×10^6 spores, no isopropyl alcohol): 3.04
- Log REDUCTION ([2]; 1 Hour): 4.3
- Log REDUCTION ([2]; 5 Hours): 4.3
- Log REDUCTION ([3]; 1 Hour, inoculum Log 10 4.6): 2.12
- Log REDUCTION ([3]; 5 Hours, inoculum Log 10 4.6): 3.02
- Log REDUCTION ([3]; 24 Hours, inoculum Log 10 3.65): 3.65
- Log REDUCTION ([4]; 1 Hour, inoculum Log 10 5.45): 3.68
- Log REDUCTION ([4]; 5 Hours, inoculum Log 10 5.45): 4.41
- Log REDUCTION ([4]; 24 Hours, inoculum Log 10 5.22): 5.22
- Log REDUCTION [5]: 5.15
